Test results taken from US20120136033A1, “Small Molecule Antagonists of Phosphatidylinositol-3,4,5-Triphosphate (PIP3) and Uses Thereof” (President and Fellows of Harvard College, priority 2009, published 2012).

Assays:
[1] = stability in dimethylsulfoxide; type: physicochemical
PI3K-PDK1-Akt signaling = PI3K-PDK1-Akt signaling in growth factor-stimulated SUM159 cells; type: cell-based, human
U87MG cells = assay: sensitization of U87MG cells to killing by TRAIL, ATP assay; type: cell-based, human; settings: 50 μM PITs or 10 μM Akt inhibitor VIII, 10 ng/ml TRAIL, 48 hr
Description: FIG. 10 is a bar graph depicting that PITs, as well as Akt inhibitor VIII, sensitize U87MG cells to killing by TRAIL. U87MG cells were incubated with 50 μM PIT-1, PIT-2, PIT-1i-1 or 10 μM Akt inhibitor VIII in the presence or absence of 10 ng/ml TRAIL for 48 hr, followed by cell viability analysis using ATP assay.
Based on the critical role of PIP3-dependent Akt signaling in the regulation of cell survival, the effect of PIT-1 on the cancer cell viability was tested. Cancer cells were seeded into 96-well plates (white plates for ATP assay; black plates for fluorescent assay; clear plates for MTS assay) at the density of 5-10×10^3 cells per well in 100 μl of the appropriate media. […] For the ATP assay, a luminescence-based commercial kit (CellTiter-Glo, Promega, Madison, Wis.) was used. Thirty microliters of cell lysis/ATP detection reagent was added to each well, mixed for 10 min at room temperature, and the luminescence was measured using a Wallac Victor 3 plate reader (Perkin-Elmer, Wellesley, Mass.). […] Twenty microliters of the combined MTS/PMS solution was added into each well, incubated for 4 hr at 37° C., and the absorbance at 490 nm was measured using a Wallac Victor 3 plate reader. […] Next, 5 μl of 20% (v/v) Triton X-100 solution was added to each well and incubated for 1 hr at 37° C., and the signal was measured again. […]

[2] = system: differentiated HL-60 cells; assay: fMLP-stimulated HL-60 cell polarization; type: cell-based; settings: 100 μM, 2 hr
Description: In another set of experiments, the ability of PITs to inhibit fMLP-stimulated HL-60 cell polarization was examined. Differentiated HL-60 cells were treated with PIT-1, PIT-2, PIT-1i-1, or PIT-1i-2, each at 100 μM for 2 hr, followed by stimulation with 100 nM fMLP for 3 min. Actin was stained and analyzed using fluorescent microscopy. The number of the polarized cells was counted in five random fields.

SMILES	stability in dimethylsulfoxide (DMSO) [1]	PI3K-PDK1-Akt signaling in SUM159 cells (PI3K-PDK1-Akt signaling)	sensitization of U87MG cells to killing by TRAIL (U87MG cells)	fMLP-stimulated polarization of differentiated HL-60 neutrophils [2]
O=C1NC(=S)S/C1=C\c1cc(O)c([N+](=O)[O-])cc1Cc1ccccc1 [PIT-2]	limited stability	–	–	–
O=C(NC(=S)Nc1cc([N+](=O)[O-])cc(Cl)c1O)c1ccccc1 [PIT-1]	–	significantly suppressed	substantially sensitized	efficient inhibition
